The Bradley open melting point set (2014)

| Structure (SMILES) | melting point |
| --- | --- |
| CCCCCCCCCCCC[N+](C)(C)[O-] [Dodecyl(dimethyl)amine oxide] | 132 °C |
| CCCCCCCCCCCCc1ccccc1 [Dodecylbenzene] | -7 °C |
| COc1cc2nc(N3CCN(C(=O)C4COc5ccccc5O4)CC3)nc(N)c2cc1OC (stereo not given) [Doxazosin] | 290 °C |
| C[C@H]1c2cccc(O)c2C(=O)C2=C(O)[C@]3(O)C(=O)C(C(N)=O)=C(O)[C@@H](N(C)C)[C@@H]3[C@@H](O)[C@@H]21 [Doxycycline] | 201 °C |
| CNC[C@H](O)c1ccc(O)c(O)c1 [Epinephrine] | 212 °C |
| C[C@]12CC[C@@H]3c4ccc(O)cc4CC[C@H]3[C@@H]1CC[C@@H]2O [Estradiol] | 176 °C |
| CC(N)=S [Ethanethioamide] | 115 °C |
| C#C[C@]1(O)CC[C@H]2[C@@H]3CCc4cc(O)ccc4[C@H]3CC[C@@]21C [Ethinyl Estradiol] | 183 °C |
| CCOC(=O)C(C#N)=Cc1ccc(Cl)cc1 [Ethyl 3-(4-chlorophenyl)-2-cyanoacrylate] | 138 °C |
| CCOC(=O)CC(C)=O [Ethyl 3-oxobutanoate] | -43 °C |
| CCOC(=O)c1ccc(N)cc1 [Ethyl 4-aminobenzoate] | 89 °C |
| CCOC(=O)C1=CC(C)N=N1 (stereo not given) [Ethyl 5-methyl-1H-pyrazole-3-carboxylate] | 82 °C |
| CCOC(=O)/C=C/c1ccccc1N [Ethyl (2E)-3-(2-aminophenyl)acrylate] | 77 °C |
| CCOC(=O)/C(C#N)=C\c1ccc(-c2ccc(C)cc2)o1 [Ethyl (2Z)-2-cyano-3-[5-(4-methylphenyl)-2-furyl]acrylate] | 124 °C |
| CCOC(=O)/C(C#N)=N\Nc1ccc(Cl)cc1 [Ethyl (2Z)-[(4-chlorophenyl)hydrazono](cyano)acetate] | 162 °C |
| CCOC(=O)/C(C#N)=N\Nc1cccc([N+](=O)[O-])c1 [Ethyl (2Z)-cyano[(3-nitrophenyl)hydrazono]acetate] | 156 °C |
| CCOC(=O)Nc1ccc(C)cc1[N+](=O)[O-] [Ethyl (4-methyl-2-nitrophenyl)carbamate] | 65 °C |
| CCCC(=O)OCC [Ethyl butyrate] | -93 °C |

| Structure (SMILES) | melting point |
| --- | --- |
| CCOC(N)=O [Ethyl carbamate] | 49 °C |
| COc1cc(C(=O)O)cc(OC)c1OC [Eudesmic acid] | 172 °C |
| C=C1C[C@@H]2[C@H](CC[C@]3(C)C(=O)CC[C@@H]23)[C@@]2(C)C=CC(=O)C=C12 [Exemestane] | 155 °C |
| CC(=O)OCC(CCn1cnc2cnc(N)nc21)COC(C)=O [Famciclovir] | 103 °C |
| N/C(N)=N/c1nc(CSCCC(N)=N/S(N)(=O)=O)cs1 [Famotidine] | 164 °C |
| NC(=O)OCC(COC(N)=O)c1ccccc1 [Felbamate] | 152 °C |
| COP(=S)(OC)Oc1cc(Cl)c(Cl)cc1Cl [Fenchlorphos] | 38 °C |
| O=c1[nH]c(=O)n([C@H]2C[C@H](O)[C@@H](CO)O2)cc1F [Floxuridine] | 150 °C |
| O=C(O)c1ccccc1Nc1cccc(C(F)(F)F)c1 [Flufenamic Acid] [listing 1 of 2 here] | 125 °C |
| O=C(O)c1ccccc1Nc1cccc(C(F)(F)F)c1 [Flufenamic Acid] [listing 2 of 2 here] | 134 °C |
| Fc1ccccc1 [Fluorobenzene] | -40 °C |
| O=c1[nH]cc(F)c(=O)[nH]1 [Fluorouracil] | 281 °C |
| CC(C(=O)O)c1ccc(-c2ccccc2)c(F)c1 (stereo not given) [Flurbiprofen] | 114 °C |
| CCC(=O)O[C@]1(C(=O)SCF)[C@H](C)C[C@H]2[C@@H]3C[C@H](F)C4=CC(=O)C=C[C@]4(C)[C@@]3(F)[C@@H](O)C[C@@]21C [Fluticasone Propionate] | 272 °C |
| Nc1nc(=O)c2nc(CNc3ccc(C(=O)N[C@@H](CCC(=O)O)C(=O)O)cc3)cnc2[nH]1 [Folic Acid] | 250 °C |
| Nc1nc(=O)c2ncn(COC(CO)CO)c2[nH]1 [Ganciclovir] | 250 °C |
| N[C@@H](CCC(=O)N[C@@H](CS)C(=O)NCC(=O)O)C(=O)O [Glutathione] | 194 °C |
